# Reference: patent US10757937B2, “Sulfonamides that activate ABA receptors” (The Regents of the University of California, priority 2014, dated 2020)
# pIC50: −log10 of the molar value. Read-outs that look alike come from different tables or passages of the source.
# Tests used:
# PYL1 = target: T1, PYL1 (Arabidopsis thaliana, UniProt Q8VZS8); experiment: receptor-mediated PP2C (HAB1) inhibition in vitro assay; assay type: biochemical; conditions: for pIC50: Table VII, read-out: PP2C Dose Curves PYL1 (IC50); for remaining activity at 50 µM: 50 uM of the test compound; for IC50: Table XII-B, calculated from dose curves, read-out: PP2C Activity (IC50 in uM) PYL1
# T1 construct: 6X-His; made in house; host or cells: E. coli BL21[DE3]pLysS
# T1 sequence (Q8VZS8 1-221): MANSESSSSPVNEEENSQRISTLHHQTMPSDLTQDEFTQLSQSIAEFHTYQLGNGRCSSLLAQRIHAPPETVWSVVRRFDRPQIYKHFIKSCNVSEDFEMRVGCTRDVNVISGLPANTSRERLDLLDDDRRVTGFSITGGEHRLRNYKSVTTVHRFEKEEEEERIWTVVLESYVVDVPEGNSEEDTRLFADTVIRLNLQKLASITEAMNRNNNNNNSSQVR
# T1 sequence (Q9CAJ0 23-511 partner): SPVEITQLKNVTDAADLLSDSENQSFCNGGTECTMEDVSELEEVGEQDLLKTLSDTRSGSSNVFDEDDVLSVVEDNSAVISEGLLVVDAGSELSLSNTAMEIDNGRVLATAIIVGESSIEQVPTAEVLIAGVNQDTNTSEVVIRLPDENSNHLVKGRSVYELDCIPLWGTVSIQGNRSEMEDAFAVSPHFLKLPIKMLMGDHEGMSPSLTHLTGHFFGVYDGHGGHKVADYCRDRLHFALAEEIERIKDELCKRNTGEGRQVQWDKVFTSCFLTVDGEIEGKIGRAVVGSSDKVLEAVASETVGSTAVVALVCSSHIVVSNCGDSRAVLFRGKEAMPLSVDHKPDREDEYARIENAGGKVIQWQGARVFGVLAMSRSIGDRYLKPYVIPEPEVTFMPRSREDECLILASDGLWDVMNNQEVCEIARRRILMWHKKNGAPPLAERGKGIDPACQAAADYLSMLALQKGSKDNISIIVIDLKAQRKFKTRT
# Outline: (§1)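 Fluorogenic readout: 4-methylumbelliferyl-phosphate hydrolysis by 50 nM GST-HAB1 plus 2:1 His-receptor; Tris-OAc pH 7.9, NaCl, 1 mM MnCl2, β-ME. Compounds at 25 μM or 50 uM single dose; IC50 from dose curves for selected compounds.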
# PYL3 = target: T2, PYL3 (Arabidopsis thaliana, UniProt Q9SSM7); experiment: as above; assay type: biochemical; conditions: for pIC50: Table VII, read-out: PP2C Dose Curves PYL3 (IC50); for remaining activity at 50 µM: 50 uM of the test compound; for IC50: Table XII-B, calculated from dose curves, read-out: PP2C Activity (IC50 in uM) PYL3
# T2 construct: 6X-His; made in house; host or cells: E. coli BL21[DE3]pLysS
# T2 sequence (Q9SSM7 1-209): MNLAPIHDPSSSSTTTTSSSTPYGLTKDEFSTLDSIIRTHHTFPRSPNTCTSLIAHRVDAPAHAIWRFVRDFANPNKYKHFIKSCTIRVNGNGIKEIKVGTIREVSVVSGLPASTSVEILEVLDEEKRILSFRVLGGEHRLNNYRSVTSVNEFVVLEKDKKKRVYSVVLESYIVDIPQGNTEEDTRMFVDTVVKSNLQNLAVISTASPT
# T2 sequence (Q9CAJ0 23-511 partner): T1 sequence (Q9CAJ0 23-511 partner)
# Outline: as §1
Structure (SMILES),PP2C Activity PYL1 (PYL1; ABA (10 μM)),PP2C Activity PYL3 (PYL3; ABA (10 μM)),pIC50 (PYL3),pIC50 (PYL1),remaining activity at 50 µM (PYL1) [%],IC50 (PYL1) [µM],remaining activity at 50 µM (PYL3) [%],IC50 (PYL3) [µM]
"CC1=CC(=O)CC(C)(C)[C@@]1(O)/C=C/C(C)=C\C(=O)O [ABA, Abscisic acid, reference compound]",5.9,5.4,,,,,,
CC(C)(C(=O)NS(=O)(=O)Cc1ccc(C#N)cc1)c1cccc(C#N)c1 [Compound 18],,,< 4.30,,,,,
CCC(CC)(C(=O)NS(=O)(=O)Cc1ccc([N+](=O)[O-])cc1)c1ccccc1 [Compound 19],,,< 4.30,< 4.30,,,,
N#Cc1ccc(CS(=O)(=O)NC(=O)C2(c3ccc(F)cc3)CCCC2)cc1 [Compound 24],,,,< 4.30,,,,
N#Cc1ccc(CS(=O)(=O)NC(=O)C2(c3ccc(Br)cc3)CC2)cc1 [Compound 30],,,< 4.30,,,,,
N#Cc1ccc(CS(=O)(=O)NC(=O)C2(c3cccc(C#N)c3)CC2)cc1 [Compound 50],,,4.68,,,,,
O=C(NS(=O)(=O)Cc1ccc([N+](=O)[O-])cc1)C1(c2ccccc2)CCCCC1 [Compound 63],,,,,101,> 50,127,> 50
O=C(NS(=O)(=O)Cc1ccc(F)cc1)C1(c2ccccc2)CCCCC1 [Compound 64],,,,,102,> 50,97.4,> 50
"CC(C)COC(=O)NS(=O)(=O)Cc1ccc(C#N)cc1 [Compound 65, 2-Methylpropyl N-[(4-cyanophenyl)methanesulfonyl]carbamate]",,,,,91.7,> 50,92.9,> 50
"CC1CCC(C(=O)NS(=O)(=O)Cc2ccc(C#N)cc2)(c2ccc(F)cc2)CC1 (centres unmarked) [Compound 67, N-[(4-Cyanophenyl)methanesulfonyl]-1-(4-fluorophenyl)-4-methylcyclohexane-1-carboxamide]",,,,,98.3,> 50,101,> 50
"CC1(C)CCC(C(=O)NS(=O)(=O)Cc2ccc(C#N)cc2)(c2ccc(F)cc2)CC1 [Compound 68, N-[(4-Cyanophenyl)methanesulfonyl]-1-(4-fluorophenyl)-4,4-dimethylcyclohexane-1-carboxamide]",,,,,96,> 50,98.3,> 50
"N#Cc1ccc(CS(=O)(=O)NC(=O)C2(c3ccccc3)CCCCC2)cc1 [Compound 69, N-[(4-Cyanophenyl)methanesulfonyl]-1-phenylcyclohexane-1-carboxamide]",,,,,98.4,> 50,103,> 50
"N#Cc1ccc(CS(=O)(=O)NC(=O)C(c2ccccc2)c2ccccc2)cc1 [Compound 71, N-[(4-Cyanophenyl)methanesulfonyl]-2,2-diphenylacetamide]",,,,,93.8,> 50,102,> 50
"N#Cc1ccc(CS(=O)(=O)NC(=O)C(c2ccc(F)cc2)c2ccc(F)cc2)cc1 [Compound 72, N-[(4-Cyanophenyl)methanesulfonyl]-2,2-bis(4-fluorophenyl)acetamide]",,,,,94.2,> 50,100,> 50
"N#Cc1ccc(CS(=O)(=O)NC(=O)C(C2CCCCC2)C2CCCCC2)cc1 [Compound 73, N-[(4-Cyanophenyl)methanesulfonyl]-2,2-cyclohexylacetamide]",,,,,95.5,> 50,92.7,> 50
"N#Cc1ccc(CS(=O)(=O)NC(=O)C2(c3cccs3)CCCCC2)cc1 [Compound 75, N-[(4-Cyanophenyl)methanesulfonyl]-1-(thiophen-2-yl)cyclohexane-1-carboxamide]",,,,,95.5,> 50,95.4,> 50
"N#Cc1ccc(CS(=O)(=O)NC(=O)C2(c3ccsc3)CCCCC2)cc1 [Compound 78, N-[(4-Cyanophenyl)methanesulfonyl]-1-(thiophen-3-yl)cyclohexane-1-carboxamide]",,,,,95.6,> 50,103,> 50
"N#Cc1ccc(CS(=O)(=O)NC(=O)C2(c3ccsc3)CCCCC2)cc1Br [Compound 106, N-[(4-Cyano-3-bromophenyl)methanesulfonyl]-1-(thiophen-3-yl)cyclohexane-1-carboxamide]",,,,,94.3,> 50,96.9,> 50
